Active and inactive are the calls of the source. No rule for the calls is given here.
Target: Perilipin-5 (Homo sapiens) + 1-acylglycerol-3-phosphate O-acyltransferase ABHD5 (Homo sapiens) (UniProt Q00G26+Q8WTS1)
Experiment: inhibition of ABHD5 association with perilipin-5 – biochemical, luminescence, dose response, round 2, late-stage follow-up (AID 652124)
Conditions: biochemical ABHD5-PLIN5 interaction

Perilipin-5 (Homo sapiens) + 1-acylglycerol-3-phosphate O-acyltransferase ABHD5 (Homo sapiens), sequence (Q00G26 whole entry, looked up): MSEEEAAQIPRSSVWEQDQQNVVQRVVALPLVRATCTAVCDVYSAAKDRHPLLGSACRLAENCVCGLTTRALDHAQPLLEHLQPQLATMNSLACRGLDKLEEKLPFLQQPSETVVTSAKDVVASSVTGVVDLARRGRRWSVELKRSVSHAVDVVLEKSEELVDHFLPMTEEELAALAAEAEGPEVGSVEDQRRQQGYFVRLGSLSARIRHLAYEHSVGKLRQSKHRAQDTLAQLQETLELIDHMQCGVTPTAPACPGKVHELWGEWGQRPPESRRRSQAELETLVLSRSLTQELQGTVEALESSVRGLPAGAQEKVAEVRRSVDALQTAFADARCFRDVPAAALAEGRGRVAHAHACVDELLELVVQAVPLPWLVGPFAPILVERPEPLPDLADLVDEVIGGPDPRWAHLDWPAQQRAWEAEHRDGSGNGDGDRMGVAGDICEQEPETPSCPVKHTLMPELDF
Perilipin-5 (Homo sapiens) + 1-acylglycerol-3-phosphate O-acyltransferase ABHD5 (Homo sapiens), sequence (Q8WTS1 whole entry, looked up): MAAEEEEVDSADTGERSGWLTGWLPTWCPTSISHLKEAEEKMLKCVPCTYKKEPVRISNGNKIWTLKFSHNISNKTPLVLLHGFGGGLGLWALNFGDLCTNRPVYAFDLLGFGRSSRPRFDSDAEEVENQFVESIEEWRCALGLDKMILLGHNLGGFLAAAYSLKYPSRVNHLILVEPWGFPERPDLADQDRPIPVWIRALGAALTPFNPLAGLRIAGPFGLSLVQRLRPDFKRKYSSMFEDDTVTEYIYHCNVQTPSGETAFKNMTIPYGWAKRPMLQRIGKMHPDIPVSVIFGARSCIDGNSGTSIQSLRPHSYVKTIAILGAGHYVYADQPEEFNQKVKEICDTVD

SMILES	IC50
O=C(CCc1nc2ccccc2s1)N1CCN(S(=O)(=O)c2ccc3c(c2)OCCO3)CC1	> 39.8 µM (inactive)
CCCC(=O)Nc1ccc2c(c1)C(=O)N(C)c1cc(C)ccc1O2	> 39.8 µM (inactive)
CN(C)CCCN(C(=O)CCc1ccccc1)c1nc2ccc(Cl)cc2s1	inactive
CCCC(=O)N(CCCN1CCOCC1)c1nc2ccc(Cl)cc2s1	> 39.8 µM (inactive)
CS(=O)(=O)c1ncc(Cl)c(C(=O)Nc2ccc(C(F)(F)F)cc2)n1	1.45 µM
CN1C(=O)c2ccccc2Sc2ccc(NC(=O)NCCc3cccs3)cc21	4.98 µM
COc1ccc(CC(=O)N2CCCN(S(=O)(=O)c3ccc(C)cc3)CC2)cc1OC	> 39.8 µM (inactive)
O=C(CCn1cnc2ccccc21)N1CCN(S(=O)(=O)c2ccc3c(c2)OCCO3)CC1	> 39.8 µM (inactive)
CCCCCCCNC(=O)Nc1ccc2c(c1)Sc1ccccc1C(=O)N2C	inactive
CCS(=O)(=O)c1ncc(Cl)c(C(=O)Nc2ccc(S(N)(=O)=O)cc2)n1	6.48 µM
Cc1ccc(NC(=O)c2nc(S(C)(=O)=O)ncc2Cl)cc1	4.24 µM
Cc1ccc(CS(=O)(=O)c2ncc(Cl)c(C(=O)Nc3cccc4ccccc34)n2)cc1	2.19 µM
Cc1ccc2cc(CC(=O)N3CCN(S(=O)(=O)c4ccc5c(c4)OCCO5)CC3)oc2c1	inactive
CCCCCCNC(=O)Nc1ccc2c(c1)Sc1ccccc1C(=O)N2C	> 39.8 µM (inactive)
Cc1ccc(CS(=O)(=O)c2ncc(Cl)c(C(=O)N3CCN(C)CC3)n2)cc1	5.91 µM
CN(C)CCCN(C(=O)Cc1ccc(F)cc1)c1nc2ccc(Cl)cc2s1	inactive
CN1C(=O)c2ccccc2Oc2ccc(NC(=O)c3cc4ccccc4[nH]3)cc21	> 39.8 µM (inactive)
CCc1ccc2c(CC(=O)N3CCN(S(=O)(=O)c4ccc5c(c4)OCCO5)CC3)coc2c1	3.88 µM
CC(C)N1C(=O)c2ccccc2Oc2ccc(NC(=O)c3ccccc3)cc21	> 39.8 µM (inactive)
O=C(Cc1ccc2c(c1)CCCC2)N1CCN(S(=O)(=O)c2ccc3c(c2)OCCO3)CC1	inactive
CN(C)CCCN(C(=O)C1CCCCC1)c1nc2cc(Br)ccc2s1	inactive
CCS(=O)(=O)c1ncc(Cl)c(C(=O)Nc2ccc(C)cc2)n1	4.13 µM
O=C(Nc1ccc2ccccc2c1)c1nc(S(=O)(=O)Cc2ccccc2)ncc1Cl	2.17 µM
CN1C(=O)c2ccccc2Oc2ccc(NC(=O)c3cccs3)cc21	> 39.8 µM (inactive)

SMILES	IC50
Cc1ccc(CS(=O)(=O)c2ncc(Cl)c(C(=O)Nc3cccc(C(F)(F)F)c3)n2)cc1	1.76 µM
Cc1ccc2c(CC(=O)N3CCN(S(=O)(=O)c4ccc5c(c4)OCCCO5)CC3)coc2c1C	4.72 µM
CN(C)CCCN(C(=O)C1CCCCC1)c1nc2cc(Cl)ccc2s1	> 39.8 µM (inactive)
CCCC(=O)Nc1ccc2c(c1)C(=O)N(C)c1ccccc1O2	> 39.8 µM (inactive)
NS(=O)(=O)c1ccc(NC(=O)c2nc(S(=O)(=O)Cc3ccccc3)ncc2Cl)cc1	3.8 µM
COc1ccc(CC(=O)N2CCN(S(=O)(=O)c3ccc4c(c3)OCCCO4)CC2)cc1	> 39.8 µM (inactive)
CCCS(=O)(=O)c1ncc(Cl)c(C(=O)Nc2ccc(C(=O)OC)cc2)n1	4.44 µM
CCCS(=O)(=O)c1ccc(Cl)c(C(=O)Nc2ccc(C(=O)OCC)cc2)c1	4.12 µM
CN1C(=O)c2ccccc2Sc2ccc(NC(=O)NCCc3ccccc3)cc21	3.7 µM
Cc1ccc(CS(=O)(=O)c2ncc(Cl)c(C(=O)NCc3ccc4c(c3)OCO4)n2)cc1	3.15 µM
O=C(CCc1c[nH]c2ccccc12)N1CCN(S(=O)(=O)c2ccc3c(c2)OCCO3)CC1	> 39.8 µM (inactive)
CN(C(=O)c1nc(S(C)(=O)=O)ncc1Cl)c1ccccc1	3.56 µM
CN1C(=O)c2ccccc2Sc2ccc(NC(=O)NCCCc3ccccc3)cc21	1.72 µM
CC(NC(=O)CN1CCN(S(=O)(=O)c2ccc3c(c2)OCCCO3)CC1)c1cc2ccccc2o1 (configuration not stated)	> 39.8 µM (inactive)
O=C(Cc1cccc(F)c1)N1CCN(S(=O)(=O)c2ccc3c(c2)OCCO3)CC1	> 39.8 µM (inactive)
COc1ccc(OCC(=O)Nc2ccc3c(c2)N(C(C)C)C(=O)c2ccccc2O3)cc1	> 39.8 µM (inactive)
COc1ccc(CCNC(=O)c2nc(S(=O)(=O)Cc3ccc(F)cc3)ncc2Cl)cc1OC	2.95 µM
O=C(c1nc(S(=O)(=O)Cc2ccccc2)ncc1Cl)N(Cc1ccccc1)Cc1ccco1	1.64 µM
Cc1ccc(CS(=O)(=O)c2ncc(Cl)c(C(=O)Nc3nnc(C(C)C)s3)n2)cc1	> 13.3 µM (inactive)
CCCCCNC(=O)Nc1ccc2c(c1)Sc1ccccc1C(=O)N2C	> 39.8 µM (inactive)
CCCNC(=O)Nc1ccc2c(c1)N(CC)C(=O)c1ccccc1S2	inactive
O=C(C1COc2ccccc2O1)N1CCN(S(=O)(=O)c2ccc3c(c2)OCCO3)CC1 (configuration not stated)	> 39.8 µM (inactive)
CN(C)CCCN(C(=O)c1cc2ccccc2oc1=O)c1nc2ccc(Cl)cc2s1	inactive

Source: PubChem BioAssay AID652124 (The Scripps Research Institute Molecular Screening Center, 2013)
